Assay results reported in patent publication US9872849B2, “Diterpenoid membranolide compounds having anti-leishmania activity and uses thereof” (UNIVERSITY OF SOUTH FLORIDA, priority 2014, dated 2018).
Like-named read-outs stand apart in the source and are kept apart here.

Columns and labels:
[1] = system: L. donovani axenic amastigotes; experiment: microbe, parasite or virus in culture; assay type: cell-based, Leishmania donovani
Protocol: (§1) Leishmaniasis efficacy was tested against L. donovani axenic amastigotes (amphotericin B, positive control=0.38 μM). Cytotoxicity was verified against Vero cells.

[2] = system: Vero cells; experiment: Cytotoxicity against Vero cells; assay type: cell-based; conditions: for IC50: cytotoxicity, read-out: IC50 Values Vero Cell
Protocol: as §1

[3] = axenic amastigotes, read-out: IC50 Values Leishmania donovani

CO[C@H]1OC(=O)[C@H](C)c2c([C@@]3(C)CCCC(C)(C)C3)ccc(C=O)c21 [Membranolide B, membranolide B] gave an IC50 [1, 3] of 58.1 µM and an IC50 [2] of 44.3 µM.

CO[C@@H]1O[C@@H](OC)c2c1ccc([C@@]1(C)CCCC(C)(C)C1)c2[C@@H](C)C(=O)O [Membranolide C, membranolide C] was tested, and the IC50 [1, 3] was over 53.1 µM and the IC50 [2] was 40.7 µM.

CO[C@@H]1O[C@@H](OC)c2c1ccc([C@@]1(C)CCCC(C)(C)C1)c2[C@@H](C)C(=O)O [Membranolide D, membranolide D] was tested, and the IC50 ([1]; Leishmania donovani, axenic amastigotes) was over 53.1 µM and the IC50 ([2]; Chlorocebus sabaeus) was 40.7 µM.

With CC(=O)O[C@@H]1OC2OC(=O)[C@H](C)C3=C([C@@]4(C)CCCC(C)(C)C4)CCC1C32 (stereo partly drawn) [Tetrahydroaplysulphurin, tetrahydroaplysulphurin] the IC50 [1, 3] was 17.3 µM and the IC50 [2] was 53.3 µM.

For C[C@@H]1[C@H](O)[C@@H](C)/C=C/C=C/C=C/C=C/C=C/C=C/C=C/[C@H](O[C@@H]2O[C@H](C)[C@@H](O)[C@H](N)[C@@H]2O)C[C@@H]2O[C@](O)(C[C@@H](O)C[C@@H](O)[C@H](O)CC[C@@H](O)C[C@@H](O)CC(=O)O[C@H]1C)C[C@H](O)[C@H]2C(=O)O [amphotericin B, reference compound], the IC50 [1, 3] was 0.38 µM.

For aplysulphurin, the “selectivity index (cytotoxicity/activity)” value [1] was “high selectivity index”, the IC50 [1, 3] was 1.56 µM and the IC50 [2] was 47.7 µM.

For membranolide A, the “IC50 Values Leishmania donovani” value ([1]; axenic amastigotes) was “Inactive” and the IC50 [2] was over 58.1 µM.

membranolide F showed an IC50 [1, 3] of 26.7 µM and an IC50 [2] of 42.4 µM.

membranolide G was tested, and the “activity against L. donovani (in words)” value [1] was “potent activity”, the IC50 [1, 3] was 0.82 µM and the “cytotoxicity (in words)” value [2] was “lacking significant cytotoxicity”. For the same compound, the IC50 [2] was over 53.1 µM.

In the case of membranolide H, the “activity against L. donovani (in words)” value [1] is reported as “potent activity”, the IC50 [1, 3] is reported as 1.14 µM and the “cytotoxicity (in words)” value [2] is reported as “lacking significant cytotoxicity”. For the same compound, the IC50 [2] was over 53.1 µM.
